Assays:
[1] = tested on: isolated rat liver mitochondria; assay: Uncoupling activity: increase in basal (state 4) oxygen consumption by oxygraphy; assay type: biochemical; settings: for Uncoupling (%): increase in basal (state 4) oxygen consumption as % of average ADP-stimulated (state 3) rate in vehicle-treated mitochondria
[2] = tested on: isolated rat liver mitochondria; assay: Residual functional capacity / inhibitory effect on ADP-stimulated (state 3) oxygen consumption; assay type: biochemical; settings: for Residual capacity (%): functional capacity (state 3 minus state 4 rate) as % of vehicle-treated mitochondria
[3] = tested on: glucose-6-phosphatase (G6Pase) activity in H4IIE hepatocytes; assay: Glucose-6-phosphatase activity in H4IIE hepatocytes; assay type: cell-based, murine; settings: 25 μM, 16 h
Procedure: 2.4 Glucose-6-phosphatase activity in H4IIE hepatocytes: H4IIE murine hepatocytes (American Type Culture Collection) were cultured to confluence in 12-well plates in DMEM supplemented with 10% FBS and antibiotics. […] Effects of test compounds on cellular viability were assessed by measuring the release of lactate dehydrogenase (LDH) into the culture medium at the end of a 16 h treatment using a commercial kit (Cytotoxicity Detection Kit; Roche Diagnostics; Laval, QC) as per the manufacturer's instructions; LDH release was expressed as % of total (medium+lysate) LDH content for each well. Cells were also routinely inspected for abnormal morphology by phase-contrast microscopy at the conclusion of the treatment period. Following treatment, cells were washed in HEPES-buffered saline (10 mM HEPES, pH 7.4, 150 mM NaCl) at 37° C. Glucose-6-phosphatase (G6Pase) activity was assessed by measuring the rate of glucose formation in the presence of a non-limiting amount of glucose-6-phosphate (G6P), as done by others [39B, 40B]. Glucose production was measured with a commercial glucose assay kit (AutoKit Glucose; Wako Diagnostics; Richmond, Va.). Two hundred μl of AutoKit Glucose buffer solution diluted 1:4 in water were added to each well. Cells were then lysed by the addition of 50 μl of 0.05% Triton X-100 in similarly diluted AutoKit Glucose buffer solution. […] At 37° C., after which time 500 μl of AutoKit Glucose color reagent were added and incubation was continued for exactly 5 min. Samples were then rapidly transferred to microcentrifuge tubes. Fifty μl were removed for assay of total protein content in order to account for effects of test compounds on cellular viability or proliferation [41B]. A commercial protein assay kit based on the Bradford method was used (Protein Assay; Bio-Rad Laboratories; Hercules, Calif.). […] The remaining volume was centrifuged at 3000×g for 5 min. Absorbance of the supernatant was measured at 505 nm at ambient temperature and glucose concentration was calculated from a standard curve performed in parallel. Control wells without exogenous G6P were included on each plate for each treatment condition and activity measured from these wells was subtracted from activity measured in the presence of exogenous G6P. G6Pase activity calculated in this way was then expressed normalized to protein content on a well-by-well basis. Two independent experiments in cells of different passages were performed for each of the selected test compounds, with four to six replicates per condition per experiment.
Protocol for assay of glucose-6-phosphatase activity in H4IIE or other hepatocytes: H4IIE murine hepatocytes (American Type Culture Collection) may be cultured to confluence in 12-well plates in Dulbecco's modified Eagle's medium (DMEM) supplemented with 10% fetal bovine serum (FBS), and antibiotics. […] Effects of test compounds on cellular viability may be assessed by measuring the release of lactate dehydrogenase (LDH) into the culture medium at the end of a 16 hour treatment using a commercial kit (e.g., Cytotoxicity Detection Kit; Roche Diagnostics; Laval, QC) as per the manufacturer's instructions; LDH release may be expressed as % of total (i.e., medium+lysate) LDH content for each well. Cells may also be routinely inspected for abnormal morphology by phase-contrast microscopy at the conclusion of the treatment period. Following treatment, cells may be washed in HEPES-buffered saline (10 mM HEPES, pH 7.4, 150 mM NaCl) at 37° C. Glucose-6-phosphatase (G6Pase) activity may be assessed by measuring the rate of glucose formation in the presence of a non-limiting amount of glucose-6-phosphate (G6P). Glucose production may be measured with a commercial glucose assay kit (e.g., AutoKit Glucose; Wako Diagnostics; Richmond, Va.). Two hundred μl of AutoKit Glucose buffer solution diluted 1:4 in water may be added to each well.

H4IIE hepatocytes = assay: Lactate dehydrogenase (LDH) release, cellular viability; assay type: cell-based, murine; settings: 25 μM, 16 h
Procedure: 2.4 Glucose-6-phosphatase activity in H4IIE hepatocytes: H4IIE murine hepatocytes (American Type Culture Collection) were cultured to confluence in 12-well plates in DMEM supplemented with 10% FBS and antibiotics. […] Effects of test compounds on cellular viability were assessed by measuring the release of lactate dehydrogenase (LDH) into the culture medium at the end of a 16 h treatment using a commercial kit (Cytotoxicity Detection Kit; Roche Diagnostics; Laval, QC) as per the manufacturer's instructions; LDH release was expressed as % of total (medium+lysate) LDH content for each well. […] Glucose-6-phosphatase (G6Pase) activity was assessed by measuring the rate of glucose formation in the presence of a non-limiting amount of glucose-6-phosphate (G6P), as done by others [39B, 40B]. Glucose production was measured with a commercial glucose assay kit (AutoKit Glucose; Wako Diagnostics; Richmond, Va.). […] Absorbance of the supernatant was measured at 505 nm at ambient temperature and glucose concentration was calculated from a standard curve performed in parallel. Control wells without exogenous G6P were included on each plate for each treatment condition and activity measured from these wells was subtracted from activity measured in the presence of exogenous G6P. G6Pase activity calculated in this way was then expressed normalized to protein content on a well-by-well basis. […]

SMILES: O=[N+]([O-])c1ccc(O)c([N+](=O)[O-])c1 [2,4-dinitrophenol]
- uncoupling activity ([1]; 50 μM in 0.1% DMSO (FIG. 19)): increased basal oxygen consumption above the level of ADP-stimulated consumption
- measured uncoupling activity ([1]; 100 μM): 143%
- slope of the linear portion of the concentration-to-activity relationship ([1]; dose-escalation, logarithmic scales): 0.89
- EC50 ([1]; dose-escalation, read-out: U50 (concentration at which 50% uncoupling is induced)): ~10 µM
- Uncoupling (%) ([1]; test conc. 25 μM): 127 ± 11%
- Uncoupling (%) ([1]; test conc. 100 μM): 143 ± 5%
- Inhibitory effect (%) ([2]; test conc. 25 μM): 0%
- Residual capacity (%) ([2]; test conc. 25 μM): 14 ± 6%
- Inhibitory effect (%) ([2]; test conc. 100 μM): 0%
- Residual capacity (%) ([2]; test conc. 100 μM): 0 ± 0%
- suppression of G6Pase activity per mg total protein [3]: 39%
- release of lactate dehydrogenase (H4IIE hepatocytes): comparable to that of vehicle-treated cells
